Reference: patent publication US20260042753A1 (Merck Patent GmbH, priority 2019, published 2026)
Where two headings read alike, the source gives them in different places.

What was measured:
[1] = target: c-Kit(V654A) (Homo sapiens, UniProt P10721, V654A); experiment: c-Kit(V654A) assay; type: biochemical
Method: c-Kit(V654A) (N-terminal GST-tagged, recombinant human c-Kit, amino acids 544-end containing the V654A mutation) is incubated with 8 mM MOPS pH 7.0, 0.2 mM EDTA, 250 μM GGMEDIYEFMGGKKK, 10 mM MgAcetate and [gamma-33P-ATP](specific activity approx. 500 cpm/pmol, concentration 200 μM). The reaction is initiated by the addition of the MgATP mix. After incubation for 40 minutes at room temperature, the reaction is stopped by the addition of 3% phosphoric acid solution. 10 μL of the reaction is then spotted onto a P30 filtermat and washed three times for 5 minutes in 75 mM phosphoric acid and once in methanol prior to drying and scintillation counting.

[2] = target: mutant cKIT (560-576 and V654A) in GIST430/654 cell line (Homo sapiens (Human), UniProt P10721, DEL560-576/V654A); experiment: Cellular testing of cKIT mutant inhibitors: phospho-Y307-cKIT Luminex assay in GIST430/654 cells; type: cell-based; conditions: read-out: GIST 430/654 IC50
Method: Assay Principle for Cellular Testing of cKIT Mutant Inhibitors
The GIST430/654 cell line expressing mutated constitutively active cKIT receptor tyrosine kinase ([…]560-576 and V654A) was employed for assessing cellular potency of compounds. Cellular activity of mutant cKIT was determined by the degree of cKIT autophosphorylation at tyrosine 307 using a Luminex-based bead assay. GIST430/654 cells were plated with 25,000 cells per well of a 96-well plate in 100 μl medium (85% IMDM/15% FCS supplemented with 100 nM Imatinib). At the following day compounds were added in a serial dilution for 45 min. Then, cells were lysed with 90 μl lysis buffer (20 mM Hepes pH 7.5, 200 mM NaCl, 1.5 mM MgCl2×6H2O, 0.4 mM EDTA, 1% Triton-X-100, 1% Phosphatase-Inhibitor II, 20 mM D-Glycerolphosphat, 0.1% Protease-Inhibitor Cocktail III, 0.01% Benzonase) und lysates were cleared by centrifugation through a 96-well filter plate (0.65 μm). Samples were incubated with Luminex-beads which were coupled with an anti-total cKIT antibody overnight at 4° C. under gentle agitation. For detection of phospho-Y307-cKIT a phosphospecific antibody and a species-specific PE-labelled secondary antibody were added. The amount of phospho-Y307-cKIT was determined in a Luminex 200 instrument measuring 100 events per well within 60 seconds.
Counts from samples treated with compounds were calculated as percent of control from solvent treated (0.3% DMSO) samples. Dose-response curves were fitted and IC50 values were determined using Genedata Screener software.

[3] = Table 1, cKIT autophosphorylation, compounds 45 min
[4] = Table 2, corresponding triazole derivatives

Chain of mutant cKIT (560-576 and V654A) in GIST430/654 cell line (P10721 other isoform, or with tags, fused parts or gaps V654A/del 1-25/del 560-576 limits assumed): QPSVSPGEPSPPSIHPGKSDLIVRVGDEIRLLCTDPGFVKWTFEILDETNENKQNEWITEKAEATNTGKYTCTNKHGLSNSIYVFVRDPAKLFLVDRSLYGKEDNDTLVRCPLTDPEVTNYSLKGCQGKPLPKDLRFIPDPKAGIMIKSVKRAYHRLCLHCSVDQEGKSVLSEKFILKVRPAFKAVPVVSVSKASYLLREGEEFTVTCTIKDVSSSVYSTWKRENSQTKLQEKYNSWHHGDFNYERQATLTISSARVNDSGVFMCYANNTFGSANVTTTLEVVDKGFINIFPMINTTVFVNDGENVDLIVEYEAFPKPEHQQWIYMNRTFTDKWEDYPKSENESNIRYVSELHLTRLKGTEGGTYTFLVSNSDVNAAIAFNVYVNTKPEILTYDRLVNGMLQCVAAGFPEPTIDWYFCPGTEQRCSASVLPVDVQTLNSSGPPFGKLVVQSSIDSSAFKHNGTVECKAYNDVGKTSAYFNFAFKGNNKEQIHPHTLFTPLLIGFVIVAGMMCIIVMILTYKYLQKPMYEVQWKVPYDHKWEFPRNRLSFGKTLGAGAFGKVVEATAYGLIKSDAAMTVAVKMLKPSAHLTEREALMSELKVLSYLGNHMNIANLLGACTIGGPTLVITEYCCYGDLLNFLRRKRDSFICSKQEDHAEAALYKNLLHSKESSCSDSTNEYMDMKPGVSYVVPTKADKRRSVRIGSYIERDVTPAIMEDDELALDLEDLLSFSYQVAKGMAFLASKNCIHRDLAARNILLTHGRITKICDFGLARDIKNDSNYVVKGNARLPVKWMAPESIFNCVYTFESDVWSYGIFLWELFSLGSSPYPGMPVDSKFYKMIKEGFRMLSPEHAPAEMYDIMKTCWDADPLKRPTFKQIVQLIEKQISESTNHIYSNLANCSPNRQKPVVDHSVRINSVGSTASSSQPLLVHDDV

SMILES | IC50 ([1]; Table 1, 200 μM ATP) | IC50 [2, 3] | IC50 [1, 4] | IC50 [2, 4]
COCCOc1cc2[nH]nc(-c3cc(-c4ccc(OCCN5CCS(=O)(=O)CC5)cc4)no3)c2cc1F [A132, 4-[2-(4-{5-[5-fluoro-6-(2-methoxyethoxy)-1H-indazol-3-yl]-1,2-oxazol-3-yl}phenoxy)ethyl]-1lambda6-thiomorpholine-1,1-dione] | 0.0016 µM | 0.093 µM |  | 
COCCOc1cc2[nH]nc(-c3cc(-c4ccc(N5CCCNCC5)cc4)no3)c2cc1F [A42, 3-{3-[4-(1,4-diazepan-1-yl)phenyl]-1,2-oxazol-5-yl}-5-fluoro-6-(2-methoxyethoxy)-1H-indazole] | 0.00073 µM | 0.17 µM |  | 
COCCOc1cc2[nH]nc(-c3cc(-c4ccc(C(=O)N5CCOC[C@@H]5COC)cc4)no3)c2cc1F [A110, 5-fluoro-6-(2-methoxyethoxy)-3-(3-{4-[(3S)-3-(methoxymethyl)morpholine-4-carbonyl]phenyl}-1,2-oxazol-5-yl)-1H-indazole] | 0.00076 µM | 0.05 µM |  | 
COCCOc1cc2[nH]nc(-c3cc(-c4ccc(C(=O)N5CC(n6ccnc6)C5)cc4)no3)c2cc1F [A85, 5-fluoro-3-(3-{4-[3-(1H-imidazol-1-yl)azetidine-1-carbonyl]phenyl}-1,2-oxazol-5-yl)-6-(2-methoxyethoxy)-1H-indazole] | 0.00063 µM | 0.13 µM |  | 
COCCOc1cc2[nH]nc(-c3cc(-c4ccc(C(=O)N5CCOC[C@H]5CO)cc4)no3)c2cc1F [A105, [(3R)-4-(4-{5-[5-fluoro-6-(2-methoxyethoxy)-1H-indazol-3-yl]-1,2-oxazol-3-yl}benzoyl)morpholin-3-yl]methanol] | 0.0012 µM | 0.14 µM |  | 
COCCOc1cc2[nH]nc(-c3cc(-c4ccc(-n5cncn5)cc4)no3)c2cc1Cl [A14, 5-chloro-6-(2-methoxyethoxy)-3-{3-[4-(1H-1,2,4-triazol-1-yl)phenyl]-1,2-oxazol-5-yl}-1H-indazole] | 0.0088 µM | 0.51 µM |  | 
COCCOc1cc2[nH]nc(-c3cn(-c4ccc(C(=O)N5CC(N6CCOCC6)C5)c(C)c4)nn3)c2cc1F [reference compound] |  |  | 0.013 µM | 0.87 µM
COCCOc1cc2[nH]nc(-c3cc(-c4ccc(C(=O)N5CCN([C@@H]6CCOC6)CC5)cc4)no3)c2cc1F [A185, 5-fluoro-6-(2-methoxyethoxy)-3-[3-(4-{4-[(3R)-oxolan-3-yl]piperazine-1-carbonyl}phenyl)-1,2-oxazol-5-yl]-1H-indazole] | 0.0011 µM | 0.06 µM |  | 
COCCOc1cc2[nH]nc(-c3cc(-c4ccc(C(=O)N5CC(n6cccn6)C5)cc4)no3)c2cc1F [A75, 5-fluoro-6-(2-methoxyethoxy)-3-(3-{4-[3-(1H-pyrazol-1-yl)azetidine-1-carbonyl]phenyl}-1,2-oxazol-5-yl)-1H-indazole] | 0.0014 µM | 0.059 µM |  | 
COCCOc1cc2[nH]nc(-c3cc(-c4ccc(C(=O)N5CC(N6CCCC6)C5)cc4)no3)c2cc1F [A178, 5-fluoro-6-(2-methoxyethoxy)-3-(3-{4-[3-(pyrrolidin-1-yl)azetidine-1-carbonyl]phenyl}-1,2-oxazol-5-yl)-1H-indazole] | 0.0011 µM | 0.062 µM |  | 
COCCOc1cc2[nH]nc(-c3cc(-c4ccc(C(=O)N(C)C)cc4)no3)c2cc1Cl [A12, 4-{5-[5-chloro-6-(2-methoxyethoxy)-1H-indazol-3-yl]-1,2-oxazol-3-yl}-N,N-dimethylbenzamide] | 0.00091 µM | 0.16 µM |  | 
O=C(c1ccc(-c2cc(-c3n[nH]c4cc(OCCO)c(F)cc34)on2)cc1)N1CCN(C2COC2)CC1 [A205, 2-{[5-fluoro-3-(3-{4-[4-(oxetan-3-yl)piperazine-1-carbonyl]phenyl}-1,2-oxazol-5-yl)-1H-indazol-6-yl]oxy}ethan-1-ol] | 0.023 µM | 0.13 µM |  | 
COCCOc1cc2[nH]nc(-c3cc(-c4ccc(C(=O)N5Cc6cncnc6C5)cc4)no3)c2cc1F [A207, 5-fluoro-6-(2-methoxyethoxy)-3-[3-(4-{5H,6H,7H-pyrrolo[3,4-d]pyrimidine-6-carbonyl}phenyl)-1,2-oxazol-5-yl]-1H-indazole] | 0.001 µM | 0.073 µM |  | 
COCCOc1cc2[nH]nc(-c3cc(-c4ccc(C(=O)N5CCO[C@@H](C)C5)cc4)no3)c2cc1F [A189, 5-fluoro-6-(2-methoxyethoxy)-3-(3-{4-[(2S)-2-methylmorpholine-4-carbonyl]phenyl}-1,2-oxazol-5-yl)-1H-indazole] | 0.0019 µM | 0.048 µM |  | 
CC(C)(O)[C@@H]1CCCN1C(=O)c1ccc(-c2cc(-c3n[nH]c4cc(Br)ccc34)on2)cc1 [A4, {4-[5-(6-bromo-1H-indazol-3-yl)-isoxazol-3-yl]-phenyl}-[(S)-2-(1-hydroxy-1-methyl-ethyl)-pyrrolidin-1-yl]-methanone] | 0.013 µM | 0.33 µM |  | 
COCCOc1cc2[nH]nc(-c3cc(-c4ccc(C(=O)N5CCNCC5)cc4)no3)c2cc1F [A46, 5-fluoro-6-(2-methoxyethoxy)-3-{3-[4-(piperazine-1-carbonyl)phenyl]-1,2-oxazol-5-yl}-1H-indazole] | 0.00096 µM | 0.058 µM |  | 
COCCOc1cc2[nH]nc(-c3cc(-c4ccc(-n5ncccc5=O)cc4)no3)c2cc1F [A142, 2-(4-{5-[5-fluoro-6-(2-methoxyethoxy)-1H-indazol-3-yl]-1,2-oxazol-3-yl}phenyl)-2,3-dihydropyridazin-3-one] | 0.006 µM | 0.075 µM |  | 
COCCOc1cc2[nH]nc(-c3cn(-c4ccc(C(=O)N5CC(F)C5)cc4)nn3)c2cc1F [reference compound] |  |  | 0.011 µM | 0.58 µM
COCCOc1cc2[nH]nc(-c3cc(-c4ccc(C(=O)N5CC(c6ccncc6)C5)cc4)no3)c2cc1F [A120, 5-fluoro-6-(2-methoxyethoxy)-3-(3-{4-[3-(pyridin-4-yl)azetidine-1-carbonyl]phenyl}-1,2-oxazol-5-yl)-1H-indazole] | 0.00064 µM | 0.024 µM |  | 
COCCOc1cc2[nH]nc(-c3cc(-c4ccc(C(=O)N5CCC[C@H]5CS(C)(=O)=O)cc4)no3)c2cc1F [A7, 5-fluoro-3-(3-{4-[(2S)-2-(methanesulfonylmethyl)pyrrolidine-1-carbonyl]phenyl}-1,2-oxazol-5-yl)-6-(2-methoxyethoxy)-1H-indazole] | 0.00075 µM | 0.04 µM |  | 
COCCOc1cc2[nH]nc(-c3cc(-c4ccc(C(=O)N5CC[C@H]5C(C)(C)O)cc4)no3)c2cc1F [A59, 2-[(2S)-1-(4-{5-[5-fluoro-6-(2-methoxyethoxy)-1H-indazol-3-yl]-1,2-oxazol-3-yl}benzoyl)azetidin-2-yl]propan-2-ol] | 0.00051 µM | 0.033 µM |  | 
COCCOc1cc2[nH]nc(-c3cc(-c4ccc(C(=O)N5CCOC[C@@H]5C)cc4)no3)c2cc1F [A115, 5-fluoro-6-(2-methoxyethoxy)-3-(3-{4-[(3S)-3-methylmorpholine-4-carbonyl]phenyl}-1,2-oxazol-5-yl)-1H-indazole] | 0.00083 µM | 0.045 µM |  | 
COCCOc1cc2[nH]nc(-c3cc(-c4ccc(C(=O)N5CCN(C6COC6)CC5C)cc4)no3)c2cc1F (stereo not drawn) [A174, 5-fluoro-6-(2-methoxyethoxy)-3-(3-{4-[2-methyl-4-(oxetan-3-yl)piperazine-1-carbonyl]phenyl}-1,2-oxazol-5-yl)-1H-indazole] | 0.0013 µM | 0.035 µM |  | 
Cn1cc(-c2ccc3c(-c4cc(-c5ccc(C(=O)N6CCC[C@@H]6C(C)(C)O)cc5)no4)n[nH]c3c2)cn1 [A8, 2-[(2R)-1-(4-{5-[6-(1-methyl-1H-pyrazol-4-yl)-1H-indazol-3-yl]-1,2-oxazol-3-yl}benzoyl)pyrrolidin-2-yl]propan-2-ol] | 0.02 µM | 0.28 µM |  | 
COCCOc1cc2[nH]nc(-c3cn(-c4ccc(C(=O)N5CCOC[C@H]5C)cc4)nn3)c2cc1F [reference compound] |  |  | 0.0043 µM | 0.23 µM
COCCOc1cc2[nH]nc(-c3cc(-c4ccc(C(=O)N5CCS(=O)(=O)CC5C)cc4)no3)c2cc1F (stereo not drawn) [A121, 4-(4-{5-[5-fluoro-6-(2-methoxyethoxy)-1H-indazol-3-yl]-1,2-oxazol-3-yl}benzoyl)-3-methyl-1lambda6-thiomorpholine-1,1-dione] | 0.0006 µM | 0.042 µM |  | 
COCCOc1cc2[nH]nc(-c3cn(-c4ccc(C5CCNCC5(C)C)cc4)nn3)c2cc1F (stereo not drawn) [reference compound] |  |  | 0.021 µM | 0.12 µM
